The values that follow come from patent publication EP0943336A1, “PEPTIDE-CONTAINING PHARMACEUTICAL COMPOSITIONS FOR ORAL ADMINISTRATION” (DOTT RESEARCH LABORATORY, priority 1996, dated 1999).

The conditions of data set [1]: cynomolgus monkey, in vivo. The method, then: Both components were mixed to make a composition in which the PTH (1-34) content was 600 µg/200 mg, and the resultant mixture was filled in enteric coating capsules.
The particle diameter of calcium carbonate, AW ceramics, and magnesium oxide used as the carrier was 40 to 45 µm.
A single oral dose of the above-mentioned composition was administered to two cynomolgus monkeys weighing 5 kg. Their blood samples were collected before dosing, and at 30, 60, 90, 120, 180, 240, 300, and 360 minutes after dosing to determine the blood PTH (1-34) level by using ELISA with a 1-34PTH2 antibody.

Details of data set [2]: species or system cynomolgus monkeys. The settings on record: cynomolgus monkey, in vivo. An excerpt: (§1) Then, the resultant mixture was filled in enteric coating capsules.
A short description of data set [3]: Absorption after oral administration of PTH (1-34) composition with diclofenac (blood PTH (1-34) level, ELISA). Type of data set: in vivo, cynomolgus monkeys. The settings on record: 10 mg diclofenac added to PTH (1-34)/magnesium oxide composition.
Description: as §1

Data set [4] in a line: Absorption after oral administration of buserelin composition (blood buserelin level, direct method). Format: in vivo, cynomolgus monkeys. The settings on record: calcium carbonate carrier, enteric capsules; for level at 2 h / level at 2.5 h: cynomolgus monkey, blood, po; for level at 2 h: 120 min after oral dose; for level at 2.5 h: 150 min after oral dose. An excerpt:
The particle diameter of calcium carbonate as the carrier was 40 to 45 µm.

Read-outs that look alike come from different tables or passages of the source.

On to PTH (1-34), for which the “absorption after oral administration (in words)” value in data set [1] and in data set [2] was “well absorbed” in each case.
Regarding `O=C(O)Cc1ccccc1Nc1c(Cl)cccc1Cl` [diclofenac], the “effect of addition on absorption of PTH (1-34) (in words)” value in data set [3] is reported as “enhanced its absorption”.
For the compound `CCNC(=O)[C@@H]1CCCN1C(=O)[C@H](CCCNC(=N)N)NC(=O)[C@H](CC(C)C)NC(=O)[C@@H](COC(C)(C)C)NC(=O)[C@H](Cc1ccc(O)cc1)NC(=O)[C@H](CO)NC(=O)[C@H](Cc1c[nH]c2ccccc12)NC(=O)[C@H](Cc1cnc[nH]1)NC(=O)[C@@H]1CCC(=O)N1` [buserelin, Buserelin], the Blood buserelin level in data set [4] (30 min after oral dose, Animal No. 1) is recorded as 30 or less pg/ml; in data set [4] (30 min after oral dose, Animal No. 2) it was 30 or less pg/ml; in data set [4] (30 min after oral dose, Animal No. 3) it was 30 or less pg/ml; in data set [4] (45 min after oral dose, Animal No. 1), 30 or less pg/ml; in data set [4] (45 min after oral dose, Animal No. 2), 30 or less pg/ml; in data set [4] (45 min after oral dose, Animal No. 3), 30 or less pg/ml. The Blood buserelin level is 30 or less pg/ml in data set [4] (60 min after oral dose, Animal No. 1); 30 or less pg/ml in data set [4] (60 min after oral dose, Animal No. 2); 30 or less pg/ml in data set [4] (60 min after oral dose, Animal No. 3); 30 or less pg/ml in data set [4] (Before dosing, Animal No. 1, oral); 30 or less pg/ml in data set [4] (Before dosing, Animal No. 2, oral); 30 or less pg/ml in data set [4] (Before dosing, Animal No. 3, oral). Besides, the level at 2 h worked out at 0.066 ng/mL in data set [4] (Animal No. 1), 0.107 ng/mL in data set [4] (Animal No. 2) and 0.053 ng/mL in data set [4] (Animal No. 3). Moreover, the level at 2.5 h in data set [4] (Animal No. 1) worked out at 0.081 ng/mL; in data set [4] (Animal No. 2), 0.193 ng/mL; in data set [4] (Animal No. 3) it was 0.07 ng/mL. Also, in data set [4], the “absorption after oral administration (in words)” value is “well absorbed”.
